Data set [1] is described as follows: Toxicity in patient with advanced solid tumor assessed as serum creatinine elevation administered as 1 hr iv infusion for 5 consecutive days every 2 weeks relative to control. Format: organism-based. The note with it: human, in vivo.
The nature of data set [2]: Toxicity in patient with advanced solid tumor assessed as dry skin administered as 1 hr iv infusion for 5 consecutive days every 2 weeks relative to control. The class given is organism-based. The note with it: human, in vivo.
Data set [3] is described as follows: Toxicity in patient with advanced solid tumor assessed as transient reversible nausea administered as 1 hr iv infusion for 5 consecutive days every 2 weeks relative to control. The note with it: human, in vivo. The class given is organism-based.
A short description of data set [4]: Toxicity in patient with advanced solid tumor administered as 1 hr iv infusion for 5 consecutive days every 2 weeks. The class given is organism-based. The note with it: human, in vivo.
A short description of data set [5]: Toxicity in patient with advanced solid tumor assessed as serum AST elevation administered as 1 hr iv infusion for 5 consecutive days every 2 weeks relative to control. The class given is organism-based. The note with it: human, in vivo.
The nature of data set [6]: Toxicity in patient with advanced solid tumor assessed as fatigue administered as 1 hr iv infusion for 5 consecutive days every 2 weeks relative to control. Format: organism-based. The note with it: human, in vivo.
For a further data set, the system named is HepG2. Description: Antitumor activity against human HepG2 cells xenografted in nu/nu CD-1 mouse assessed as tumor regression at 120 mg/kg, iv administered daily relative to control. The class given is functional. A general note: A xenograft is tissue or cells of one species grown in another, often human tumour cells in immunodeficient mice.
The next data set concerns the target Histone deacetylase 5 (Homo sapiens, UniProt Q9UQL6). Description: Inhibition of HDAC5 (unknown origin).
For a further data set, the target named is T1, Histone deacetylase 8 (Homo sapiens, UniProt Q9BY41).
T1 sequence (Q9BY41 whole entry): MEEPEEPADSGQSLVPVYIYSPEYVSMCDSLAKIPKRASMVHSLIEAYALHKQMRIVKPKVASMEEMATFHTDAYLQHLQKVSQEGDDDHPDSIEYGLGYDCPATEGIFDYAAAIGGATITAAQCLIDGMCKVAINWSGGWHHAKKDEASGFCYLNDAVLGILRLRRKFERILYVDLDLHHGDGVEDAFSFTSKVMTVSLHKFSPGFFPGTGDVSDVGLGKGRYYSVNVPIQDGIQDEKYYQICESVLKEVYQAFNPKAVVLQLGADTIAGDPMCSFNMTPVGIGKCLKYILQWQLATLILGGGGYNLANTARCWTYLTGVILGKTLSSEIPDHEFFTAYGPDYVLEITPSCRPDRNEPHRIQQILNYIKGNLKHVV

The target of a further data set is Histone deacetylase 9 (Homo sapiens, UniProt Q9UKV0). The data set can be described thus: Inhibition of HDAC9 (unknown origin).
Chain of Histone deacetylase 9 (Q9UKV0 whole entry): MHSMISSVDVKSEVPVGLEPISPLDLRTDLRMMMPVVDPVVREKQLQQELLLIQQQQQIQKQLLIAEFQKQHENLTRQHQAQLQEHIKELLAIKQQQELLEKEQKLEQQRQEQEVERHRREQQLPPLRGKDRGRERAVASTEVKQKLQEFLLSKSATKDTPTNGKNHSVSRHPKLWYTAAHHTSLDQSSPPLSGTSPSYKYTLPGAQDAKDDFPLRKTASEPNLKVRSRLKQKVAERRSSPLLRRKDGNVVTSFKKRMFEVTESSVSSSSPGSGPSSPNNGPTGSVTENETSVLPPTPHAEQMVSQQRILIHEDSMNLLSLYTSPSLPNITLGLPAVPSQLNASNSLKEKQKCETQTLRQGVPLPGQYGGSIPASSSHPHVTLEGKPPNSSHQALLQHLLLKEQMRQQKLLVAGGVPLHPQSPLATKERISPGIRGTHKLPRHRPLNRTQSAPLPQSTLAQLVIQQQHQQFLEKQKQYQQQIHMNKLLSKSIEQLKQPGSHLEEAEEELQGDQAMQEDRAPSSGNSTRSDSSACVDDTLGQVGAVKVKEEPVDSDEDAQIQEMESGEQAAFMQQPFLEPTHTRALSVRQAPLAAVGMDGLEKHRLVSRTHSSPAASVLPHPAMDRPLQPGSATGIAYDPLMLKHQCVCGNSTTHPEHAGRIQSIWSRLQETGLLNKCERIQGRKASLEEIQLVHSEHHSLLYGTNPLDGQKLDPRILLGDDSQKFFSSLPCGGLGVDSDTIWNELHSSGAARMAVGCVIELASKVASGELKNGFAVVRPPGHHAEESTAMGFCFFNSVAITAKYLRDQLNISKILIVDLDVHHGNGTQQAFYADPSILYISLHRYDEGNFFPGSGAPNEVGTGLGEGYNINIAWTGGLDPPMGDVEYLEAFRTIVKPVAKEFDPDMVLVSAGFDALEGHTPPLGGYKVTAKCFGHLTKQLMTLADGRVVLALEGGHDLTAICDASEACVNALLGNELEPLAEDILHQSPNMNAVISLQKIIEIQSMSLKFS
The target of data set [7] is T2, Protein deacetylase HDAC6 (Homo sapiens, UniProt Q9UBN7).
T2 sequence (Q9UBN7 whole entry): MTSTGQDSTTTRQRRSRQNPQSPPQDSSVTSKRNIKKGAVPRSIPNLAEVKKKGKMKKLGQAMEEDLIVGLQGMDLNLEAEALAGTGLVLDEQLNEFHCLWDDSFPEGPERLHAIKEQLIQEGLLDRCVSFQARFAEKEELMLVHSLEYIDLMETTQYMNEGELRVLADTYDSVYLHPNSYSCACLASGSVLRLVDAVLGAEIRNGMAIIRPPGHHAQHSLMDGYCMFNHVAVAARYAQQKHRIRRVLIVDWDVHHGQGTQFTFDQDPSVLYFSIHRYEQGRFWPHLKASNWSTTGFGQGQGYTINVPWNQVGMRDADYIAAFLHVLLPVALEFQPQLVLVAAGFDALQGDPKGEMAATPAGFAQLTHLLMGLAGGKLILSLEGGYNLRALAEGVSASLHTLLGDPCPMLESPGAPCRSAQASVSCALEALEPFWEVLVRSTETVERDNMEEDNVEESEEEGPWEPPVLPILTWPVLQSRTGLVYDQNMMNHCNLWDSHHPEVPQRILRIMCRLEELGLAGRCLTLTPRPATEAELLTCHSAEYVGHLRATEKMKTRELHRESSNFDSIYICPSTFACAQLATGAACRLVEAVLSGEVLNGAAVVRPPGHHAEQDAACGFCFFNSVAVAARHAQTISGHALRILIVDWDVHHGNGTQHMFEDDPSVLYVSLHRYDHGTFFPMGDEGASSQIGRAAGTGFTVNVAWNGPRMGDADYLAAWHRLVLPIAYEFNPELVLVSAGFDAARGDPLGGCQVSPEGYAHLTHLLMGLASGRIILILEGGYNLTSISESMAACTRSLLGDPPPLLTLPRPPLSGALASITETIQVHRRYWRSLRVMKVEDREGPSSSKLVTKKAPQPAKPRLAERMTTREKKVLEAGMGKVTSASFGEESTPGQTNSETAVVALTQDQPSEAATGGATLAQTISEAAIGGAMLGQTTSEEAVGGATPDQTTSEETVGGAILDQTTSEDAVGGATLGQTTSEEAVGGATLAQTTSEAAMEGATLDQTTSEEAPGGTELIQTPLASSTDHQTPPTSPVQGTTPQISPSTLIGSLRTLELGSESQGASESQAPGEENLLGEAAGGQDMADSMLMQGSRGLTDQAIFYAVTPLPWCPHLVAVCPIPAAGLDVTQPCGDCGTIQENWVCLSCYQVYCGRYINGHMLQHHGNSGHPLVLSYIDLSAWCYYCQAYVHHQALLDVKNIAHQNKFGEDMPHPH
Description: Inhibition of HDAC6 (unknown origin)

Molecules are shown by their SMILES.

Chain of Histone deacetylase 5 (Q9UQL6 whole entry): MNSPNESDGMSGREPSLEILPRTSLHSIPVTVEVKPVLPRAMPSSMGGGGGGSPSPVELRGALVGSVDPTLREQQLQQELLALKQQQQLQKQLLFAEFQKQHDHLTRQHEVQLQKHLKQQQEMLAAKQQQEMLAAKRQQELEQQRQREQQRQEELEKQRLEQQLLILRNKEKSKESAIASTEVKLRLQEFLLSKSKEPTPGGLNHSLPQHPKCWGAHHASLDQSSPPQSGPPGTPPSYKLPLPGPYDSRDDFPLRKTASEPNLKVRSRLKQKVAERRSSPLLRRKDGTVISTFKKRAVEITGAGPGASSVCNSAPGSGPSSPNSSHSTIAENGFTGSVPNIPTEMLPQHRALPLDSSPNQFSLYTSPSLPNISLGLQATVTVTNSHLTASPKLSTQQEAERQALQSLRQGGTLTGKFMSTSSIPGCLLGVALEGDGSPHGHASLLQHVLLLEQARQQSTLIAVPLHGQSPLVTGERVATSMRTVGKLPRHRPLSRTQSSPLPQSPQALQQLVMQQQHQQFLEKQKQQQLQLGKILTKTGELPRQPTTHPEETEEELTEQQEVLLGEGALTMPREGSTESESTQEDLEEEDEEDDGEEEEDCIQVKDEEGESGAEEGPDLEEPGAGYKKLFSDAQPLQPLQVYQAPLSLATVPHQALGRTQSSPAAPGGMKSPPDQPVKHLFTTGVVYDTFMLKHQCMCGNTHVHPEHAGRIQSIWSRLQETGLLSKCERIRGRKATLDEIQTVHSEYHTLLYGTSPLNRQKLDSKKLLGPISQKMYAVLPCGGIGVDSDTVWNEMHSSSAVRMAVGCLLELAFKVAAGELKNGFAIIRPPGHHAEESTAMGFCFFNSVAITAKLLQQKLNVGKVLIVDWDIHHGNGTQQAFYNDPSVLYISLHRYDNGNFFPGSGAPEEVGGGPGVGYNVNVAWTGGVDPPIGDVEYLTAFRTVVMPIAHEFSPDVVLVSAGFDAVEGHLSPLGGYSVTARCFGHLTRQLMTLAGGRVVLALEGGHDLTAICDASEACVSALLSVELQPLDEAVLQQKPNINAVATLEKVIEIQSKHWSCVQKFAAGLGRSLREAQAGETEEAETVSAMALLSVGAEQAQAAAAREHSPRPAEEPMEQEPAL
Description for Histone deacetylase 8: Inhibition of HDAC8 (unknown origin)

In the case of `C#Cc1cccc(Nc2ncnc3cc(OC)c(OCCCCCCC(=O)NO)cc23)c1` [CUDC-101], the Activity in [1] was found to be 12%; in [2], 16%; in data set [3], 24%; in [5] it was 12%; in data set [6], 24%; in the data set with HepG2, 30%. Further, the MTD in data set [4] came to 275 mg/m2.
With `O=C(CCCCCCC(=O)Nc1ccccc1)NO` [VORINOSTAT], the IC50 result (against Histone deacetylase 5; against Histone deacetylase 8; against Histone deacetylase 9; in data set [7]) was “Not Active” in each case.

(Values after ChEMBL document CHEMBL4339181, “Kinase and Histone Deacetylase Hybrid Inhibitors for Cancer Therapy” (J Med Chem, 2019).)
